Data as given in patent publication US8383880B2, “Infertility control of genetically modified fish” (Academia Sinica, priority 2009, dated 2013).

Experiments:
[1] = system: Wild type; assay: Fertility assessment; type: in vivo, zebrafish; details: 5 mM Met every other day for 1 week; for Female infertility, Met+: Wild type females; for Male infertility, Met+: Wild type males
Method: (§1) Fertility was assessed by pairing each heterozygous transgenic fish with a WT mate. At least 20 transgenic fish were tested for each line, and the numbers of fertile zebrafish were compared with wild-type fish. Each male was assessed with multiple females. Zebrafish were labeled infertile if they were unable to produce offspring over a 4-month period.
(§2) To assess the fertility of Met-treated transgenic zebrafish lines, Tg(Asp-eGFP:Ntr), Tg(Odf-eGFP:Ntr), and Tg(Sam-eGFP:Ntr) lines were crossed with wild-type zebrafish (100-200 eggs per line; three mating pairs per line). The reproductive parameters were compared with wild-type pairs of the same strain (100-200 eggs per five mating pairs). […] In fact, the infertility of Met-treated Tg(Asp-eGFP:Ntr) transgenic males mated with wild-type female fish increased by over 68.0% compared to that of wild-type. […] However, Met-treated transgenic female lines remained fertile as wild-type female.
(§3) After establishing breeding colonies of these three transgenic lines, Tg(Asp-eGFP:Ntr), Tg(Odf-eGFP:Ntr), and Tg(Sam-eGFP:Ntr), it became clear that the male transgenic fish were at intermediate levels of infertility while the female transgenic fish remained fertile after Met treatment. None of the Met-treated adult males crossed with wild-type females were fully successful in spawning fertilized eggs (Table 1). […] To reach high or full (100%) levels of male infertility in Met-treated transgenic zebrafish lines, we generated compound transgenic lines, Tg(AO-eGFP:Ntr), Tg(AS-eGFP:Ntr), Tg(OS-eGFP:Ntr), and Tg(AOS-eGFP:Ntr) by crossing each other of Tg(Asp-eGFP:Ntr), Tg(Odf-eGFP:Ntr), and Tg(Sam-eGFP:Ntr), then examined male infertility after Met treatment (Table 2). At 4 months of age, Met-treated compound transgenic males had three mediate (76.4%), intermediate high (85.7%), high (95.0%), and full (100%) levels of infertility for Tg(OS-eGFP:Ntr), Tg(AO-eGFP:Ntr), Tg(AS-eGFP:Ntr), and Tg(AOS-eGFP:Ntr), respectively. Met-treated compound transgenic females crossed with wild-type zebrafish remained fertile. No gross abnormalities were apparent in any of the Met-untreated compound transgenic zebrafish lines or Met-treated double transgenic females.

[2] = system: Tg(Odf-eGFP:Ntr); assay: Fertility assessment; type: in vivo, zebrafish
Method: as §1, §2, §3

[3] = system: Tg(Sam-eGFP:Ntr); assay: Fertility assessment; type: in vivo, zebrafish
Method: as §1, §2, §3

[4] = system: Tg(Asp-eGFP:Ntr); assay: Fertility assessment; type: in vivo, zebrafish
Method: as §1, §2, §3

[5] = system: Tg(AOS-eGFP:Ntr); assay: Fertility assessment, compound transgenic line; type: in vivo, zebrafish
Text: (§4) To generate compound transgenic lines, the homozygous transgenic zebrafish of each line, Tg(Asp-eGFP:Ntr), Tg(Odf-eGFP:Ntr), and Tg(Sam-eGFP:Ntr), were then crossed with each other to generate double transgenic fish, Tg(AO-eGFP:Ntr)[Tg(Asp-eGFP:Ntr);Tg(Odf-eGFP:Ntr)], Tg(AS-eGFP:Ntr)[Tg(Asp-eGFP:Ntr);Tg(Sam-eGFP:Ntr)], and Tg(OS-eGFP:Ntr)[Tg(Odf-eGFP:Ntr);Tg(Sam-eGFP:Ntr)] and triple-transgenic fish, Tg(AOS-eGFP:Ntr)[Tg(Asp-eGFP:Ntr; Odf-eGFP:Ntr;Sam-eGFP:Ntr)] for experiments. RT-PCR was performed to test the expression of eGFP:Ntr in the testes of all lines. Animals from each cross were divided into four groups based on genotype. The four groups were then used to assess fertility in response to Met administration.
as §1, §3

[6] = system: Tg(OS-eGFP:Ntr); assay: Fertility assessment, compound transgenic line; type: in vivo, zebrafish; details: Tg(OS-EGFP:Ntr) females, 5 mM Met every other day for 1 week
Text: as §4, §1, §3

[7] = system: Tg(AO-eGFP:Ntr); assay: Fertility assessment, compound transgenic line; type: in vivo, zebrafish; details: Tg(AO-EGFP:Ntr) females, 5 mM Met every other day for 1 week
Text: as §4, §1, §3

[8] = system: Tg(AS-eGFP:Ntr); assay: Fertility assessment, compound transgenic line; type: in vivo, zebrafish; details: Tg(AS-EGFP:Ntr) females, 5 mM Met every other day for 1 week
Text: as §4, §1, §3

[9] = system: 14 dpf transgenic embryos; assay: Metronidazole dependent cell ablation, dose response in ablating gonad; type: in vivo, zebrafish; details: 5 mM Met, 14 dpf larvae
Method: Metronidazole (Met, M3761, Sigma) was dissolved in a standard zebrafish embryo medium with vigorous agitation. Embryos were incubated at 28° C. in the dark, and 14-21 dpf transgenic embryos were used to study the dose response of Met in ablating gonad. In initial studies, 14 dpf embryos were incubated in a range of Met concentrations (1-10 mM).

[10] = system: AB strain zebrafish embryos; assay: Tolerable concentration of Mtz for zebrafish (consecutive immersion of embryos); type: in vivo; details: for larvae dead: at 5 dpf
Method: In order to determine the tolerable concentration of Mtz for zebrafish, AB strain zebrafish embryos at the single-cell stage were incubated at 28° C. in a range of Mtz concentrations (0-20 mM). We observed obvious abnormal development of larvae at 3 days postfertilization (dpf). The larvae were dead at 5 dpf after consecutive immersions in […] Mtz (100%, n=26/26) and 20 mM Mtz (100%, n=30/30). The nonspecific death of the larvae was first observed at 6 dpf after consecutive immersions in 10 mM Mtz (23%, n=7/30). In contrast, we observed that no larvae died after at least 10 dpf of consecutive immersion in 5 mM Mtz (0%, n=30). Therefore, the optimal Mtz concentration used in the present experiment was 5 mM.

SMILES: Cc1ncc([N+](=O)[O-])n1CCO [Mtz]
- Female infertility, Met+ ([1]; Table 1 (n=28)): 0/28 (0%)
- Female infertility, Met+ ([1]; Table 2 (n=30)): 0/30 (0%)
- Male infertility, Met+ ([1]; Table 1 (n=28)): 0/28 (0%)
- Male infertility, Met+ ([1]; Table 2 (n=30)): 0/30 (0%)
- infertility increased compared to that of wild type ([2]; Met-treated Tg(Odf-eGFP:Ntr) males mated with wild-type female): over 59.1%
- Female infertility, Met+ ([2]; Tg(Odf-EGFP:Ntr) females, 5 mM Met every other day for 1 week): 0/22 (0%)
- Male infertility, Met+ ([2]; Tg(Odf-EGFP:Ntr) males, 5 mM Met every other day for 1 week): 13/22 (59.1%)
- infertility increased compared to that of wild type ([3]; Met-treated Tg(Sam-eGFP:Ntr) males mated with wild-type female): > 54.1%
- Female infertility, Met+ ([3]; Tg(Sam-EGFP:Ntr) females, 5 mM Met every other day for 1 week): 0/24 (0%)
- Male infertility, Met+ ([3]; Tg(Sam-EGFP:Ntr) males, 5 mM Met every other day for 1 week): 13/24 (54.1%)
- infertility increased compared to that of wild-type ([4]; Met-treated Tg(Asp-eGFP:Ntr) males mated with wild-type female): over 68.0%
- Female infertility, Met+ ([4]; Tg(Asp-EGFP:Ntr) females, 5 mM Met every other day for 1 week): 0/25 (0%)
- Male infertility, Met+ ([4]; Tg(Asp-EGFP:Ntr) males, 5 mM Met every other day for 1 week): 17/25 (68.0%)
- Female infertility, Met+ ([5]; Tg(AOS-EGFP:Ntr) females, 5 mM Met every other day for 1 week): 0/38 (0%)
- lethality in male triple-transgenic fish ([5]; male Tg(AOS-eGFP:Ntr), 5 mM Met treatment for 1 week, listed as Met): occasionally died
- Female infertility, Met+ [6]: 0/34 (0%)
- Female infertility, Met+ [7]: 0/35 (0%)
- Female infertility, Met+ [8]: 0/40 (0%)
- deleterious effects on larvae [9]: no deleterious effects
- larvae dead ([10]; 15 nM Mtz, n=26/26): 100%
- larvae died ([10]; 5 mM Mtz, at least 10 dpf, n=30): 0%
- nonspecific death of the larvae ([10]; 10 mM Mtz, first observed at 6 dpf, n=7/30): 23%
- larvae dead ([10]; 20 mM Mtz, n=30/30): 100%
